Like-named read-outs stand apart in the source and are kept apart here.
Key:
[1] = tested on: high cholesterol diet-treated rat; assay: Influence on serum lipid of high cholesterol diet-treated rat; format: in vivo, male SD rats; settings: 0.3 mg/kg p.o. once a day for 5 days, high cholesterol diet rats, non-fasting; for inhibition in vivo at 0.3 mg/kg: Rattus norvegicus, po, 120 h
Experimental: 2) Influence on Serum Lipid of High Cholesterol Diet-Treated Rat
8-week-old male SD rats (manufactured by SEAC Yoshitomi, Ltd.) were raised on a standard diet CE-2 (manufactured by Japan Clea, Inc.) added with 1% cholesterol, 2% olive oil and 0.2% cholic acid, from one week before test compound administration to the last day of the administration. A test compound and a control compound (GW-9578) were dissolved or suspended in 1% ethanol, 0.05% Tween80 (final concentration), and 0.5% hydroxypropylmethyl cellulose (HPMC) was added to adjust to a given concentration. The prepared solution was orally administered once a day for 5 days. After administration for 5 days, blood samples were collected from the jugular vein under non-fasting condition and blood lipid was measured by an enzyme method. The lowering rate was calculated by determining the rate of a value obtained by subtracting the average blood TG (or average blood TC) of a drug administration group from the average blood triglyceride (TG) (or average blood total cholesterol (TC)) of a vehicle administration group, to the average blood TG (or average blood TC) of the vehicle administration group.

[2] = tested on: normal rats; assay: Blood triglyceride (TG)-lowering action in normal rats; format: in vivo; settings: 0.3 mg/kg p.o. once a day for 4 days, normal male SD rats, non-fasting, blood TG vs vehicle group; for inhibition in vivo at 0.3 mg/kg: Rattus norvegicus, po, 96 h, read-out: hypotriglyceridemic rate (%, 0.3 mg/kg, p.o.)
Experimental: 1) Blood Triglyceride (TG)-Lowering Action in Normal Rats
7 to 9-week-old male SD rats (manufactured by SEAC Yoshitomi, Ltd.) were used for the test. A test compound and a control compound (GW-9578: J. Med. Chem. 1999, 42, 3785-3788) were dissolved or suspended in 1% ethanol, 0.05% Tween80 (final concentration), and 0.5% hydroxypropylmethyl cellulose (HPMC) was added to adjust to a given concentration. The prepared solution was orally administered once a day for 4 days. After administration for 4 days, blood samples were collected from the jugular vein under non-fasting condition and blood TG was measured by an enzyme method. The lowering rate was calculated by determining the rate of a value obtained by subtracting the average blood TG of a drug administration group from the average blood TG of a vehicle administration group, to the average blood TG of the vehicle administration group.

[3] = target: T1, Human Peroxisome Proliferator-Activated Receptor (PPAR)α (Homo sapiens, UniProt Q07869); assay: Transcription activation test for human PPARα (GAL4-hPPARαLBD luciferase reporter in CV-1 cells); format: cell-based; settings: firefly luciferase reporter, 24 hr with test compound in serum free medium, read-out: transactivation action (EC50, nmol/l)
T1 construct: expressed in transfected cells; host or cells: CV-1 cells (CCL-70)
T1 sequence (Q07869 239-466 limits assumed): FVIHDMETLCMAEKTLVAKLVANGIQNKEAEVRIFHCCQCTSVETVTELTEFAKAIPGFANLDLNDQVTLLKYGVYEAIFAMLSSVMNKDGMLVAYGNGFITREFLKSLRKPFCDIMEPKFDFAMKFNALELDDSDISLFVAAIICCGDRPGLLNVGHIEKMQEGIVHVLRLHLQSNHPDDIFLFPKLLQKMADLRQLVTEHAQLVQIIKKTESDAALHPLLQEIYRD
Text: Transcription Activation Test for Human Peroxisome Proliferator-Activated Receptor (PPAR)α
CV-1 cells (CCL-70, manufactured by Dainippon Pharma Co., Ltd.) cultured in Dulbecco's Modified Eagle Medium (DMEM) containing 10% fetal bovine serum (FBS) were transfected, using Lipofectamine 2000 (manufactured by Invitrogen), with pBIND vector (manufactured by Promega) a fusion that expresses protein (GAL4-hPPARαLBD, manufactured based on Diabetes 47: 1841-1847, 1998) of a DNA binding region of a yeast transcription factor (GAL4) and a human PPARα ligand binding region, and an internal standard renilla luciferase, and GAL4 responsive TK vector (manufactured by Promega) that expresses reporter firefly luciferase. 24 hr later, the medium was changed to a serum free medium containing a test compound, and the luciferase activity after 24 hr was measured.

[4] = blood total cholesterol vs vehicle group, read-out: lowering rate (%, 0.3 mg/kg, p.o.) TC
[5] = blood triglyceride vs vehicle group, read-out: lowering rate (%, 0.3 mg/kg, p.o.) TG

Row | SMILES | EC50 [3] | inhibition in vivo at 0.3 mg/kg [1, 4] | inhibition in vivo at 0.3 mg/kg [1, 5] | inhibition in vivo at 0.3 mg/kg [2] | lowering rate (%, 0.3 mg/kg, p.o.) TC ([1]; blood total cholesterol vs vehicle group) | lowering rate (%, 0.3 mg/kg, p.o.) TG ([1]; blood triglyceride vs vehicle group) | hypotriglyceridemic rate (%, 0.3 mg/kg, p.o.) [2]
1 | CC(C)(Sc1nc(CCOc2ccc(-c3ccc(F)cc3)cc2)cs1)C(=O)O [Example 34, 2-[(4-{2-[(4′-fluorobiphenyl-4-yl)oxy]ethyl}-1,3-thiazol-2-yl)thio]-2-methylpropionic acid] | 10.4 nmol/L | 43% | 45% | 62% |  |  | 
2 | CC(C)(Sc1nc(CCOc2ccc(-c3ccc(F)cc3)cn2)cs1)C(=O)O [Example 100] | 11.2 nmol/L | 35% | 38% | 61% |  |  | 
3 | CC(C)(Sc1nc(CCNc2ncc(-c3ccc(OC(F)(F)F)cc3)cn2)cs1)C(=O)O [Example 162, 2-methyl-2-({4-[2-({5-[4-(trifluoromethoxy)phenyl]pyrimidin-2-yl}amino)ethyl]-1,3-thiazol-2-yl}thio)propionic acid] | 21 nmol/L | 31% | 48% | 65% |  |  | 
4 | CC(C)(Sc1nc(CCNc2ccc(-c3ccc(C(F)(F)F)cc3F)nn2)cs1)C(=O)O [Example 224, 2-({4-[2-({6-[2-fluoro-4-(trifluoromethyl)phenyl]pyridazin-3-yl}amino)ethyl]-1,3-thiazol-2-yl}thio)-2-methylpropionic acid] | 29.7 nmol/L | 31% | 57% | 63% |  |  | 
5 | CCCCCCCN(CCc1ccc(SC(C)(C)C(=O)O)cc1)C(=O)Nc1ccc(F)cc1F [GW-9578, reference compound] |  |  |  |  | 30-50% | 30-50% | 50-60%

Now from value to compound, other results behind:

Row | EC50 [3] | SMILES | inhibition in vivo at 0.3 mg/kg [1, 4] | inhibition in vivo at 0.3 mg/kg [1, 5] | inhibition in vivo at 0.3 mg/kg [2] | lowering rate (%, 0.3 mg/kg, p.o.) TC ([1]; blood total cholesterol vs vehicle group) | lowering rate (%, 0.3 mg/kg, p.o.) TG ([1]; blood triglyceride vs vehicle group) | hypotriglyceridemic rate (%, 0.3 mg/kg, p.o.) [2]
6 | 16.5 nmol/L | CC(C)(Sc1nc(CCNc2cnc(-c3ccc(Cl)cc3)cn2)cs1)C(=O)O [Example 226, 2-{[4-(2-{[5-(4-chlorophenyl)pyrazin-2-yl]amino}ethyl)-1,3-thiazol-2-yl]thio}-2-methylpropionic acid] | 38% | 56% | 64% |  |  | 
7 | 7 nmol/L | CCCCCCCN(CCc1csc(SC(C)(C)C(=O)O)n1)c1ncc(CC)cn1 [Example 265, 2-[(4-{2-[(5-ethylpyrimidin-2-yl)(heptyl)amino]ethyl}-1,3-thiazol-2-yl)thio]-2-methylpropionic acid] | 31% | 63% | 69% |  |  | 
8 | 38.8 nmol/L | CCc1cnc(N(CCc2csc(SC(C)(C)C(=O)O)n2)Cc2cnn(-c3ccccc3)c2)nc1 [Example 326, 2-{[4-(2-{(5-ethylpyrimidin-2-yl)[(1-phenyl-1H-pyrazol-4-yl)methyl]amino}ethyl)-1,3-thiazol-2-yl]thio}-2-methylpropionic acid] | 31% | 43% | 59% |  |  | 
9 | 13.6 nmol/L | CCc1cnc(N(C/C=C/c2ccccc2)CCc2csc(SC(C)(C)C(=O)O)n2)nc1 [Example 346, 2-{[4-(2-{(5-ethylpyrimidin-2-yl)[(2E)-3-phenylprop-2-en-1-yl]amino}ethyl)-1,3-thiazol-2-yl]thio}-2-methylpropionic acid] | 31% | 47% | 63% |  |  | 
10 | 5.5 nmol/L | CCCCCCCN(CCc1csc(SC(C)(C)C(=O)O)n1)c1ncc(N2CCOCC2)cn1 [Example 442, 2-[(4-{2-[heptyl(5-morpholin-4-ylpyrimidin-2-yl)amino]ethyl}-1,3-thiazol-2-yl)thio]-2-methylpropionic acid] | 38% | 39% | 65% |  |  | 

From patent publication US8026370B2, “Carboxylic acid derivative containing thiazole ring and pharmaceutical use thereof” (Mitsubishi Tanabe Pharma Corporation, priority 2004, dated 2011)
